From US20060074073A1, “Therapeutic combinations comprising poly (ADP-ribose) polymerases inhibitor” (AGOURON PHARMACEUTICALS, INC., priority 2004, published 2006)
Where “and” joins values, the source holds several entries; their conditions need not be identical. Identical values can stand only once. Like-named read-outs stand apart in the source and are kept apart here.

Columns and labels:
[1] = human, in vivo
Method: This is an open-label, multi-center, dose-escalation study being conducted in 2 parts. Part 1 of the study was open to patients with advanced tumors.
The PK analysis was conducted on preliminary interim data using nominal collection times.

[2] = test system: LoVo xenografts; assay: In vivo antitumor efficacy with temozolomide, LoVo xenograft
Text: In no combination study was antagonism observed.

[3] = test system: LoVo cells; assay: Inhibition of potentially lethal damage recovery, colony formation; format: cell-based; conditions: 8 Gy + 0.4 μM compound
Text: A contributory factor to radiation resistance in vivo is the ability of quiescent cells to repair potentially lethal damage (PLD) (Weichselbaum, R. R. and Little, J. B. The differential response of human tumors to fractionated radiation may be due to a post-irradiation repair process. Br. J. Cancer 1982; 46: 532-537). In vitro models of PLD measure the increase in survival of irradiated, growth arrested cells following delayed plating for colony formation. Recovery from potentially lethal damage was measured in vitro using LoVo cells that had been arrested in G1 phase by growing to confluence to mimic the radio-resistant quiescent cell population in tumors. Cells were exposed to 8 Gy of γ-irradiation (Gammacel 1000 Elite, Nordian International Inc. Canada), and either harvested and plated for colony formation assay immediately or maintained as growth arrested confluent cultures for a 24-hour recovery period before harvesting and plating for the colony formation assay. Where indicated, 0.4 μM compound Formula 1 was added 30 minutes before irradiation and was present throughout the recovery incubation.

[4] = test system: LoVo xenografts; assay: Tumor growth delay with X-irradiation, LoVo xenografts; format: in vivo
Method: The experimental endpoint was defined to be the time required for relative tumor volume to increase to four times the volume measured at the start of treatment (RTV4). Growth delays were calculated from the difference in time taken to achieve RTV4 (days) between IR/Formula 1 treated tumors and untreated controls.

[5] = test system: LoVo cells; assay: Inhibition of cell growth and potentiation of temozolomide/topotecan, LoVo; format: cell-based
[6] = test system: PARP; assay: Inhibition of cellular NAD consumption in mouse peripheral blood lymphocytes after PARP activation; format: cell-based; conditions: PARP activated by MNNG, hydrogen peroxide or gamma irradiation, data not shown
Text: (§1) After DNA damage, cellular NAD is rapidly incorporated into poly-ADP-ribose polymer.

[7] = test system: PARP; assay: Inhibition of cellular NAD consumption in P388 mouse leukemia cells after PARP activation; format: cell-based; conditions: PARP activated by MNNG, hydrogen peroxide or gamma irradiation, data not shown
Text: as §1

[8] = test system: A549 cells; assay: Inhibition of cell growth and potentiation of temozolomide/topotecan, A549; format: cell-based; conditions: for GI50: Homo sapiens, 120 h, 5-day continuous exposure
[9] = IV pharmacokinetics, summary over all species; set-up: species or system CD-1 mice, Wistar rats, Beagle dogs, and cynomolgus monkeys; conditions: CD-1 (mouse), Wistar (rat), Beagle (dog), cynomolgus monkey, in vivo, IV dosing
Text: (§2) Each of the dose treatment groups was split into 2 cohort groups of 4 mice. The reason for cohort blood sampling is due to the blood volume limitations of the mouse species. Blood was drawn from each cohort every other pharmacokinetic sampling time. […] Three mice per dose group were euthanized at each of the collection time points. […] Blood from each rat was collected for each time point.

[10] = test system: PARP; assay: Inhibition of MNNG-induced cellular NAD depletion and poly-ADP-ribose polymer formation in A549 cells; format: cell-based; conditions: for NAD (% DMSO) / Polymer (% MNNG): MNNG 25 μM
[11] = in vivo; conditions: CD-1, mouse, iv, 5 mg/kg
Text: as §2

[12] = IV pharmacokinetics in monkeys; conditions: cynomolgus monkey, in vivo
[13] = Human protein binding; format: in vitro ADME
Method: This value was determined from the target effect (IC89) for inhibition of cellular NAD^+ depletion and poly-ADP-ribose polymer formation and adjusted for protein binding. […] II. Pharmaceutical Combinations of the Present Invention and Their Use

[14] = IV pharmacokinetics in dogs; conditions: Beagle, in vivo, dog
[15] = A549, compound 0.4 μM (Table 6)
[16] = 15 mg/kg single IV dose (free base) as glucuronate salt
[17] = 15 mg/kg single IV dose as glucuronate salt
[18] = 15 mg/kg single IV dose as glucuronate salt, read-out: Vss

CNCc1ccc(-c2[nH]c3cc(F)cc4c3c2CCNC4=O)cc1.O=P(O)(O)O [Compound I, phosphate salt of 8-fluoro-2-{4-[(methylamino)methyl]phenyl}-1,3,4,5-tetrahydro-6H-azepino[5,4,3-cd]indol-6-one]
mean total body clearance [1]: 27 L/h
dose proportionality in AUC(0-24) and Cmax ([1]; iv): linear dose proportionality
mean terminal half-life ([1]; iv): 6.2 to 10.7 h
AUC0-24 ([1]; iv, 1 mg/m2): 24.2 ng·h/mL
AUCinf ([1]; iv, 1 mg/m2): 24.2 ng·h/mL
AUC0-24 ([1]; iv, 2 mg/m2): 139.0 ng·h/mL
AUCinf ([1]; iv, 2 mg/m2): 167.0 ng·h/mL
AUC0-24 ([1]; iv, 4 mg/m2): 237.3 ng·h/mL
AUCinf ([1]; iv, 4 mg/m2): 286.6 ng·h/mL
CL ([1]; iv, 4 mg/m2): 26.0 L/h
Cmax ([1]; iv, 4 mg/m2): 168.9 ng/mL
Vss ([1]; iv, 4 mg/m2): 286.4 L
t1/2 ([1]; iv, 4 mg/m2): 10.7 h
AUC0-24 ([1]; iv, 8 mg/m2): 892.4 ng·h/mL
AUCinf ([1]; iv, 8 mg/m2): 1118.8 ng·h/mL
CL ([1]; iv, 8 mg/m2): 16.9 L/h
Cmax ([1]; iv, 8 mg/m2): 456.4 ng/mL
Vss ([1]; iv, 8 mg/m2): 151.7 L
t1/2 ([1]; iv, 8 mg/m2): 10.5 h
AUC0-24 ([1]; iv, 12 mg/m2): 1017.1 ng·h/mL
AUCinf ([1]; iv, 12 mg/m2): 1163.3 ng·h/mL
CL ([1]; iv, 12 mg/m2): 23.9 L/h
Cmax ([1]; iv, 12 mg/m2): 882.5 ng/mL
Vss ([1]; iv, 12 mg/m2): 270.1 L
t1/2 ([1]; iv, 12 mg/m2): 10.6 h

CNCc1ccc(-c2[nH]c3cc(F)cc4c3c2CCNC4=O)cc1.O=C[C@H](O)[C@@H](O)[C@H](O)[C@H](O)C(=O)O [compound of formula 1 glucuronate salt]
body weight loss ([2]; LoVo experiment, any dose group): No body weight loss
Enhancement (%) ([2]; LoVo, temozolomide 68 mg/kg oral + 0.5 mg/kg i.p. (glucuronate salt), once daily for 5 days): 67% and 67^f %

CNCc1ccc(-c2[nH]c3cc(F)cc4c3c2CCNC4=O)cc1 [compound of formula 1, 8-fluoro-2-{4-[(methylamino)methyl]phenyl}-1,3,4,5-tetrahydro-6H-azepino[5,4,3-cd]indol-6-one]
% PLDR ([3]; 100 × (survival at 24 hr-survival at 0 time)/survival at 0 time): 211 ± 184%
Survival at 0 time ([3]; G1-arrested): 0.02 ± 0.01
Survival at 24 hr ([3]; G1-arrested): 0.057 ± 0.038
inhibition at 0.4 µM ([3]; Homo sapiens, mean of 3 independent experiments, read-out: Inhibition of PLDR): 64.9%
Enhancement (%) ([4]; IR 2 Gy + 0.15 mg/kg i.p. 30 minutes before, daily × 5, 0.15 mg/kg): 36% and 36^e %
Enhancement (%) ([4]; IR 2 Gy + 15 mg/kg i.p. 30 minutes before, daily × 5, 15 mg/kg): 36% and 36^f %
Temozolomide PF50 ([5]; +0.4 μM compound of formula 1): 8 and 8.1
Topotecan PF50 ([5]; +0.4 μM compound of formula 1): 1.6 and 1.7
GI50 ([5]; Homo sapiens, 120 h, 5-day continuous exposure): 12 µM
inhibition of PARP catalytic activity (cellular NAD consumption) [6]: inhibits PARP catalytic activity
inhibition of PARP catalytic activity (cellular NAD consumption) [7]: inhibits PARP catalytic activity
Topotecan PF50 ([8]; A549, +0.4 μM compound of formula 1): 1.6
Temozolomide PF50 ([8]; A549, GI50 temozolomide alone/GI50 temozolomide+0.4 μM compound of formula 1): 3.5
PF50 (Temozolomide) ([8]; A549, compound 0.0005 μM): 1
PF50 (Topotecan) ([8]; A549, compound 0.0005 μM): 1.4
PF50 (Topotecan) ([8]; A549, compound 0.005 μM): 1.8
PF50 (Temozolomide) ([8]; A549, compound 0.005 μM (5 nM)): 1.3
PF50 (Topotecan) ([8]; A549, compound 0.05 μM): 2.1
PF50 (Temozolomide) ([8]; A549, compound 0.1 μM): 2.6
PF50 (Topotecan) ([8]; A549, compound 0.1 μM): 2.2
PF50 (Temozolomide) [8, 15]: 3.5
PF50 (Topotecan) [8, 15]: 2.4
GI50 ([8]; A549, LoVo and SW620 cell lines, read-out: GI50 values, range over cell lines): 7 to 12 µM
GI50 ([8]; A549, read-out: GI50): 7 µM
clearance [9]: 34 to 136 mL/min/kg
half-life ([9]; read-out: terminal half-life): 2 to 5 h
Vd ([9]; read-out: volume of distribution): 7 to 15 L/kg
inhibition of MNNG-induced NAD depletion ([10]; 50 nM): 93%
inhibition of poly-ADP-ribose polymer formation ([10]; 50 nM): 95%
NAD (% DMSO) ([10]; compound 0.0005 μM): 77 % DMSO
Polymer (% MNNG) ([10]; compound 0.0005 μM): 40 % MNNG
NAD (% DMSO) ([10]; compound 0.005 μM): 95 % DMSO
Polymer (% MNNG) ([10]; compound 0.005 μM): 11 % MNNG
NAD (% DMSO) ([10]; compound 0.05 μM): 96 % DMSO
Polymer (% MNNG) ([10]; compound 0.05 μM): 5 % MNNG
NAD (% DMSO) ([10]; compound 0.1 μM): 97 % DMSO
Polymer (% MNNG) ([10]; compound 0.1 μM): 4 % MNNG
NAD (% DMSO) ([10]; compound 0.4 μM): 97 % DMSO
Polymer (% MNNG) ([10]; compound 0.4 μM): 4 % MNNG
inhibition of cellular poly-ADP-ribose formation ([10]; MNNG-induced, 5 nM): 89%
AUC(0-inf) [11]: 620 ng·h/mL
Vd [11]: 10 L/kg
clearance [11]: 136 mL/min/kg
half-life [11]: 2.3 h
AUC(0-inf) [12, 16]: 7400 ± 700 ng·h/mL
clearance [12, 17]: 33.8 ± 3.1 mL/min/kg
half-life [12, 17]: 5.2 ± 0.8 h
Vd [12, 18]: 7.2 ± 1.2 L/kg
fraction unbound ([13]; human, plasma, concentrations between 0.05 to 25 nM): 0.274
plasma concentration from 5 nM target effect corrected for human protein binding ([13]; target effect IC89 in A549 cells): 5.9 ng/mL
AUC(0-inf) [14, 16]: 4100 ± 500 ng·h/mL
clearance [14, 17]: 61.8 ± 8.2 mL/min/kg
half-life [14, 17]: 4.5 ± 1.1 h
Vd [14, 18]: 15.2 ± 2.3 L/kg
